Reference: ChEMBL document CHEMBL1201862, “PubChem BioAssay data set” (2004)
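Compound exposure: 48 hours, 5 concentrations, 96-well plates. GI50 is the concentration that inhibits growth by half.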 Active and inactive are the calls of the source. Rule as the data show it: active = GI50 up to about 1.1 µM and inactive = higher.

Key:
Assay in all cases: DTP human tumour cell line panel, 48 h
MDA-N = tested on: MDA-N
MDA-MB-435 = tested on: MDA-MB-435
HOP-92 = tested on: HOP-92
786-0 = tested on: 786-0
SK-MEL-5 = tested on: SK-MEL-5
BT-549 = tested on: BT-549
TK-10 = tested on: TK-10
NCI/ADR-RES = tested on: NCI/ADR-RES
HT-29 = tested on: HT-29
Hs-578T = tested on: Hs-578T
K562 = tested on: K562
CAKI-1 = tested on: CAKI-1
U-251 = tested on: U-251
NCI-H522 = tested on: NCI-H522
RPMI-8226 = tested on: RPMI-8226
SF-268 = tested on: SF-268
SNB-19 = tested on: SNB-19
HCC 2998 = tested on: HCC 2998
SK-OV-3 = tested on: SK-OV-3

SMILES | GI50 (MDA-N) | GI50 (MDA-MB-435) | GI50 (HOP-92) | GI50 (786-0) | GI50 (SK-MEL-5) | GI50 (BT-549) | GI50 (TK-10) | GI50 (NCI/ADR-RES) | GI50 (HT-29) | GI50 (Hs-578T) | GI50 (K562) | GI50 (CAKI-1) | GI50 (U-251) | GI50 (NCI-H522) | GI50 (RPMI-8226) | GI50 (SF-268) | GI50 (SNB-19) | GI50 (HCC 2998) | GI50 (SK-OV-3)
COc1ccc(C(=O)/C=C/c2ccc(OCC(=O)O)cc2)cc1 | 34.4 µM (inactive) | 32.8 µM (inactive) | 31.5 µM (inactive) | 60.1 µM (inactive) | > 100 µM (inactive) | 38.6 µM (inactive) | > 100 µM (inactive) | 83.4 µM (inactive) | > 100 µM (inactive) | 70.1 µM (inactive) | 39.4 µM (inactive) | > 100 µM (inactive) | 27.7 µM (inactive) | 36 µM (inactive) | > 100 µM (inactive) | 43.9 µM (inactive) | 98.6 µM (inactive) | 27.7 µM (inactive) | –
COc1cc(C(=O)/C=C/c2ccc(OCC#N)cc2)cc(OC)c1OC | 38 µM (inactive) | 20.5 µM (inactive) | 17 µM (inactive) | 22.2 µM (inactive) | 13.2 µM (inactive) | 17.7 µM (inactive) | 25.1 µM (inactive) | 18 µM (inactive) | 31.7 µM (inactive) | 25.1 µM (inactive) | 24.5 µM (inactive) | 26.1 µM (inactive) | 18 µM (inactive) | 17.3 µM (inactive) | – | 33.3 µM (inactive) | 20.3 µM (inactive) | 16.5 µM (inactive) | 40.6 µM (inactive)
CC(C)N1CCN(c2ccc(OCC3COC(Cn4cncn4)(c4ccc(Cl)cc4Cl)O3)cc2)CC1 (stereo not drawn) [TERCONAZOLE] | 4.86 µM (inactive) | 4.97 µM (inactive) | 13.6 µM (inactive) | 4.06 µM (inactive) | 2.18 µM (inactive) | 14.4 µM (inactive) | 9.62 µM (inactive) | 16.7 µM (inactive) | 3.62 µM (inactive) | 12.2 µM (inactive) | 3.47 µM (inactive) | 17.3 µM (inactive) | 12.9 µM (inactive) | 15.2 µM (inactive) | 10.5 µM (inactive) | 12.3 µM (inactive) | > 42.1 µM (inactive) | 9.18 µM (inactive) | 13.5 µM (inactive)
Cc1cc(-c2nc3cc(O)ccc3s2)ccc1N | 29.4 µM (inactive) | 33.3 µM (inactive) | 76.4 µM (inactive) | 37 µM (inactive) | 22.5 µM (inactive) | 45.8 µM (inactive) | 38.9 µM (inactive) | 38.1 µM (inactive) | 21.5 µM (inactive) | 35.2 µM (inactive) | 38.5 µM (inactive) | 34 µM (inactive) | 30.5 µM (inactive) | 31 µM (inactive) | – | 36.7 µM (inactive) | 33.7 µM (inactive) | 37.8 µM (inactive) | 19.3 µM (inactive)
COc1cc2c(cc1OC)CCc1cc(OC)c(OC)cc1CC2 | > 100 µM (inactive) | > 100 µM (inactive) | > 100 µM (inactive) | > 100 µM (inactive) | > 100 µM (inactive) | > 100 µM (inactive) | > 100 µM (inactive) | > 100 µM (inactive) | > 100 µM (inactive) | > 100 µM (inactive) | > 100 µM (inactive) | > 100 µM (inactive) | > 100 µM (inactive) | – | – | – | > 100 µM (inactive) | > 100 µM (inactive) | > 100 µM (inactive)
Cc1nc2c(o1)C(=O)c1ccccc1/C2=N/C1CCCCC1N (stereo not drawn) | 0.185 µM (active) | 0.162 µM (active) | 0.483 µM (active) | 1.77 µM (inactive) | 0.11 µM (active) | 0.41 µM (active) | 1.98 µM (inactive) | 0.288 µM (active) | 2.28 µM (inactive) | 0.644 µM (active) | 0.235 µM (active) | 1.71 µM (inactive) | 0.312 µM (active) | 1.06 µM (active) | 0.565 µM (active) | 1.09 µM (active) | 0.787 µM (active) | 1.65 µM (inactive) | –
COc1c(Sc2c(SCSc3cnc4ccccc4c3Sc3cnc4ccccc4c3OC)cnc3ccccc23)cnc2ccccc12 | 77.8 µM (inactive) | 26.9 µM (inactive) | 13.2 µM (inactive) | > 100 µM (inactive) | 24.8 µM (inactive) | 54.5 µM (inactive) | 38.6 µM (inactive) | 42.5 µM (inactive) | 78.7 µM (inactive) | 52.2 µM (inactive) | – | > 100 µM (inactive) | 30.1 µM (inactive) | 19.2 µM (inactive) | 9.2 µM (inactive) | > 100 µM (inactive) | 22.4 µM (inactive) | > 100 µM (inactive) | –
COc1cc(C(c2c(O)c3ccccc3oc2=O)c2c(O)c3ccccc3oc2=O)cc(Br)c1O | 18.4 µM (inactive) | 20.3 µM (inactive) | 12.5 µM (inactive) | 17.7 µM (inactive) | 16.3 µM (inactive) | 17 µM (inactive) | 16.1 µM (inactive) | 23 µM (inactive) | 20 µM (inactive) | 20.2 µM (inactive) | 30.3 µM (inactive) | 15.7 µM (inactive) | 16.8 µM (inactive) | 12.9 µM (inactive) | 19.8 µM (inactive) | 13.8 µM (inactive) | 18.6 µM (inactive) | – | 20.1 µM (inactive)
Nc1nc2cc3nc(N)c(N)nc3cc2nc1N | > 100 µM (inactive) | > 100 µM (inactive) | – | > 100 µM (inactive) | > 100 µM (inactive) | > 100 µM (inactive) | 80.5 µM (inactive) | > 100 µM (inactive) | > 100 µM (inactive) | > 100 µM (inactive) | > 10 µM (inactive) | > 100 µM (inactive) | > 100 µM (inactive) | > 100 µM (inactive) | > 100 µM (inactive) | > 100 µM (inactive) | > 100 µM (inactive) | > 100 µM (inactive) | > 100 µM (inactive)
N=c1sc2ccccc2n1CC[S-].c1ccc2c(c1)sc1[n+]2CCS1 | 37.1 µM (inactive) | 15.7 µM (inactive) | 17 µM (inactive) | 16.8 µM (inactive) | 14.8 µM (inactive) | 23.1 µM (inactive) | 22.8 µM (inactive) | 20.4 µM (inactive) | 19 µM (inactive) | 42.6 µM (inactive) | 16.7 µM (inactive) | 16.9 µM (inactive) | 15.5 µM (inactive) | 18 µM (inactive) | – | 20 µM (inactive) | 19.3 µM (inactive) | 17.1 µM (inactive) | 23.1 µM (inactive)
COc1ccc(CNC(=O)[C@H](Cc2ccc(O)cn2)NC(C)=O)cc1 | > 100 µM (inactive) | > 100 µM (inactive) | – | > 100 µM (inactive) | > 100 µM (inactive) | > 100 µM (inactive) | > 100 µM (inactive) | > 100 µM (inactive) | > 100 µM (inactive) | > 100 µM (inactive) | > 100 µM (inactive) | > 100 µM (inactive) | > 100 µM (inactive) | > 100 µM (inactive) | 64.9 µM (inactive) | > 100 µM (inactive) | > 100 µM (inactive) | > 100 µM (inactive) | > 100 µM (inactive)
CN(Cc1cccc2ccsc12)/N=C\c1ccc(Cl)cc1 | 39.2 µM (inactive) | 49.3 µM (inactive) | > 100 µM (inactive) | > 100 µM (inactive) | 15.5 µM (inactive) | > 100 µM (inactive) | > 100 µM (inactive) | > 100 µM (inactive) | 26.7 µM (inactive) | > 100 µM (inactive) | 40.6 µM (inactive) | > 100 µM (inactive) | > 100 µM (inactive) | 51.3 µM (inactive) | – | > 100 µM (inactive) | > 100 µM (inactive) | 49.3 µM (inactive) | > 100 µM (inactive)
COc1cc(/C=C2/SC(c3ccccc3)N(c3ccccc3Cl)C2=O)cc(OC)c1OC (stereo not drawn) | 28 µM (inactive) | 27.2 µM (inactive) | 26.1 µM (inactive) | 25.9 µM (inactive) | 15.4 µM (inactive) | 28.2 µM (inactive) | 69.5 µM (inactive) | 25.9 µM (inactive) | – | 30 µM (inactive) | 31.2 µM (inactive) | 55.7 µM (inactive) | 23.1 µM (inactive) | 14.9 µM (inactive) | 21.7 µM (inactive) | 41.1 µM (inactive) | 28.2 µM (inactive) | 88.1 µM (inactive) | 19.8 µM (inactive)
CC(C)=CCC[C@@H](C)c1c2nc3ccccc3[nH]c-2c(C)c(=O)c1O | 2.09 µM (inactive) | 2.73 µM (inactive) | 1.41 µM (inactive) | 1.75 µM (inactive) | 1.63 µM (inactive) | 2.63 µM (inactive) | 2.58 µM (inactive) | 0.771 µM (active) | 5.32 µM (inactive) | 2.28 µM (inactive) | 1.41 µM (inactive) | 1.14 µM (inactive) | 1.6 µM (inactive) | – | 8.73 µM (inactive) | 0.906 µM (active) | 2.5 µM (inactive) | 5.45 µM (inactive) | 2.15 µM (inactive)
CCO/C=N\c1c(C#N)c(-c2ccc(Cl)cc2)cn1-c1ccc(C)cc1 | > 100 µM (inactive) | > 100 µM (inactive) | > 100 µM (inactive) | > 100 µM (inactive) | > 100 µM (inactive) | > 100 µM (inactive) | > 100 µM (inactive) | > 100 µM (inactive) | > 100 µM (inactive) | 95.9 µM (inactive) | > 100 µM (inactive) | > 100 µM (inactive) | > 100 µM (inactive) | > 100 µM (inactive) | – | > 100 µM (inactive) | > 100 µM (inactive) | > 100 µM (inactive) | > 100 µM (inactive)
